The target in one assay is T1, EGFR-L858R/T790M/C797S (Homo sapiens, UniProt P00533, C797S/L858R/T790M).
T1 construct: expressed in transfected cells; host or cells: H1975-clone #25 (lentiviral over-expression, endogenous EGFR knocked out)
Nature of the assay: EGFR degradation HTRF assay in H1975-clone #25 cells. The settings on record: 16 h treatment; for DC50: H1975-clone #25 (L858R/T790M/C797S) cells, IC50 (DC50), read-out: DC50(nM) H1975 # 25-LTC; for Dmax: NCI-H1975, H1975-clone #25 (L858R/T790M/C797S) cells, maximum percentage of inhibition (degradation), read-out: Dmax (%) H1975 # 25-LTC. Type of assay: cell-based. In outline:
(§1)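 H1975 clones with endogenous EGFR knocked out, homozygously expressing lentiviral L858R/T790M/C797S (#25) or Del19/T790M/C797S (#28), treated 16 h at 37° C with 8 doses from 10 uM, 5-fold, in 0.2% DMSO. EGFR in lysates measured by HTRF overnight; DC50 from four-parameter fit of % degradation.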

A further assay has as its system EGFR-Del19/T790M/C797S. As to the kind of experiment: EGFR degradation HTRF assay in H1975-clone #28 cells. It is filed as cell-based. The settings on record: H1975-clone #28 (Del19/T790M/C797S) cells, 16 h treatment; for DC50: IC50 (DC50), read-out: DC50(nM) H1975 # 28 DTC; for Dmax (%) H1975 # 28 DTC: maximum percentage of inhibition (degradation). In outline: as §1
On the technique in general: Time-resolved FRET reads energy transfer from a long-lived donor to a nearby acceptor.

T1 sequence (P00533 25-1210 T790M/C797S/L858R): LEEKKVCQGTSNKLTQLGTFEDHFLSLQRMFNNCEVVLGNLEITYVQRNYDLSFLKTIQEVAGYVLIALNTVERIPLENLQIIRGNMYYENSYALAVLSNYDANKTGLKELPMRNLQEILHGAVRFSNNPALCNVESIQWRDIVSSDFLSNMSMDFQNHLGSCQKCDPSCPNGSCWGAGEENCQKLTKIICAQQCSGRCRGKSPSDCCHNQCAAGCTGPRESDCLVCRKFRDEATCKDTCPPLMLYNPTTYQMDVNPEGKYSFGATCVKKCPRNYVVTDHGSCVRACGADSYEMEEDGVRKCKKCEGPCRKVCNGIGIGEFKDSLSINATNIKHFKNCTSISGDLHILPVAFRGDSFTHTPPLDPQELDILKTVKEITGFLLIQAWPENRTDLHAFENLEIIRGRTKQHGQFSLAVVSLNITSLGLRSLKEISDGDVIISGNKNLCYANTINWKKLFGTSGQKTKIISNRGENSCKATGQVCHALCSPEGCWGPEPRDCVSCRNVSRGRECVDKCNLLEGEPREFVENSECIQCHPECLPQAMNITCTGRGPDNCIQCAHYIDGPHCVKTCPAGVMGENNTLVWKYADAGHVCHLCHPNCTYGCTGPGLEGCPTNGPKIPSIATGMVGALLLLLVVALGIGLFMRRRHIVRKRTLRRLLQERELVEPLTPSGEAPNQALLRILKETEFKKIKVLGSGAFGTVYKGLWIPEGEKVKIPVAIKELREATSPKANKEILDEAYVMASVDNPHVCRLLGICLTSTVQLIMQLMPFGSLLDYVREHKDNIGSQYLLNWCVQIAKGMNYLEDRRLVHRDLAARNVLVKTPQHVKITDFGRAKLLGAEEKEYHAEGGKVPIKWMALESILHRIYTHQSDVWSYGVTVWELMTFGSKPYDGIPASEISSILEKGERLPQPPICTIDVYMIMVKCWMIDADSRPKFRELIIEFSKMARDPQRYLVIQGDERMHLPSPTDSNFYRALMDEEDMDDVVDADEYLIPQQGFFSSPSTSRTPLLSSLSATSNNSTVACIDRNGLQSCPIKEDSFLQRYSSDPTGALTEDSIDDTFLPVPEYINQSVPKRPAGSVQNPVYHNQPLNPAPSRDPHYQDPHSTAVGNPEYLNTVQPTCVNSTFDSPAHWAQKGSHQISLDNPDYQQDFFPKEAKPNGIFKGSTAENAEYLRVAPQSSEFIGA

For the molecule `COc1cc(N2CCC3(CC2)CCN(C2CCN(c4cc(F)c([C@H]5CCC(=O)NC5=O)c(F)c4)CC2)CC3)c(C)cc1Nc1ncc(Br)c(Nc2ccc3nccnc3c2P(C)(C)=O)n1` [Example 36, (R)-3-(4-(4-(9-(4-((5-bromo-4-((5-(dimethylphosphoryl)quinoxalin-6-yl)amino)pyrimidin-2-yl)amino)-5-methoxy-2-methylphenyl)-3,9-diazaspiro [5.5]undecan-3-yl)piperidin-1-yl)-2,6-difluorophenyl)piperidine-2,6-dione], on EGFR-L858R/T790M/C797S, the half-maximal degradation concentration (DC50) – broadly, the concentration giving 50% degradation – worked out at 4.5 nM and the Dmax (commonly the greatest extent of degradation seen) is 94%. Further, in the assay on EGFR-Del19/T790M/C797S, the DC50 was found to be 3.1 nM and the “Dmax (%) H1975 # 28 DTC” value is reported as 93%.
Consider `COc1cc(N2CCC3(CC2)CCN(C2CCN(c4cc(F)c([C@H]5CCC(=O)NC5=O)c(F)c4)CC2)CC3)c(C)cc1Nc1ncc(Br)c(Nc2ccc3nc(C)c(F)cc3c2P(C)(C)=O)n1` [Example 37, (R)-3-(4-(4-(9-(4-((5-bromo-4-((5-(dimethylphosphoryl)-3-fluoro-2-methylquinolin-6-yl)amino)pyrimidin-2-yl)amino)-5-methoxy-2-methylphenyl)-3,9-diazaspiro[5.5]undecan-3-yl)piperidin-1-yl)-2,6-difluorophenyl)piperidine-2,6-dione], for which, on EGFR-L858R/T790M/C797S, the 50% degradation concentration (DC50) turned out to be 1.4 nM and the Dmax came to 95%. For the same molecule, in the assay on EGFR-Del19/T790M/C797S, the 50% degradation concentration (DC50) is 3.3 nM and the “Dmax (%) H1975 # 28 DTC” value is on record as 90%.
The corresponding values for `CCc1cc(Nc2ncc(Br)c(Nc3ccc4nc(C)c(F)cc4c3P(C)(C)=O)n2)c(OC)cc1N1CCC2(CC1)CCN(C1CN(c3cc(F)c([C@H]4CCC(=O)NC4=O)c(F)c3)C1)CC2` [Example 38, (R)-3-(4-(3-(9-(4-((5-bromo-4-((5-(dimethylphosphoryl)-3-fluoro-2-methylquinolin-6-yl)amino)pyrimidin-2-yl)amino)-2-ethyl-5-methoxyphenyl)-3,9-diazaspiro[5.5]undecan-3-yl)azetidin-1-yl)-2,6-difluorophenyl)piperidine-2,6-dione] are 8.6 nM, 89%, 7.4 nM and 85%.
The corresponding values for `CCc1cc(Nc2ncc(Br)c(Nc3ccc4nc(C)c(F)cc4c3P(C)(C)=O)n2)c(OC)cc1N1CCC2(CCN(CC3CN(c4cc(F)c([C@H]5CCC(=O)NC5=O)c(F)c4)C3)CC2)CC1` [Example 39, (R)-3-(4-(3-((9-(4-((5-bromo-4-((5-(dimethylphosphoryl)-3-fluoro-2-methylquinolin-6-yl)amino)pyrimidin-2-yl)amino)-2-ethyl-5-methoxyphenyl)-3,9-diazaspiro[5.5]undecan-3-yl)methyl)azetidin-1-yl)-2,6-difluorophenyl)piperidine-2,6-dione] are 5.6 nM, 93%, 2.6 nM and 92%.
`CCc1ncc2c(P(C)(C)=O)c(Nc3nc(Nc4cc(CC)c(N5CCC6(CCN(CCc7cc(F)c([C@H]8CCC(=O)NC8=O)c(F)c7)CC6)CC5)cc4OC)ncc3Br)ccc2n1` [Example 40, (R)-3-(4-(2-(9-(4-((5-bromo-4-((5-(dimethylphosphoryl)-2-ethylquinazolin-6-yl)amino)pyrimidin-2-yl)amino)-2-ethyl-5-methoxyphenyl)-3,9-diazaspiro[5.5]undecan-3-yl)ethyl)-2,6-difluorophenyl)piperidine-2,6-dione]: at EGFR-L858R/T790M/C797S, the DC50 worked out at 6 nM and the Dmax is 86%. Besides, in the assay with EGFR-Del19/T790M/C797S, the DC50 was found to be 2.4 nM and the “Dmax (%) H1975 # 28 DTC” value is listed as 88%.
With `CCc1cc(Nc2ncc(Cl)c(Nc3ccc4nc(C)c(F)cc4c3P(C)(C)=O)n2)c(OC)cc1N1CCC2(CCN(CCc3cc(F)c([C@H]4CCC(=O)NC4=O)c(F)c3)CC2)CC1` [Example 41, (R)-3-(4-(2-(9-(4-((5-chloro-4-((5-(dimethylphosphoryl)-3-fluoro-2-methylquinolin-6-yl)amino)pyrimidin-2-yl)amino)-2-ethyl-5-methoxyphenyl)-3,9-diazaspiro[5.5]undecan-3-yl)ethyl)-2,6-difluorophenyl)piperidine-2,6-dione], at EGFR-L858R/T790M/C797S, the DC50 came out at 4.2 nM and the Dmax amounted to 88%. In the assay on EGFR-Del19/T790M/C797S, the DC50 was found to be 4.2 nM and the “Dmax (%) H1975 # 28 DTC” value stood at 86%.
As for `CCc1ncc2c(P(C)(C)=O)c(Nc3nc(Nc4cc(C)c(N5CCC6(CCN(CCc7cc(F)c([C@H]8CCC(=O)NC8=O)c(F)c7)CC6)CC5)cc4OC)ncc3Cl)ccc2n1` [Example 42, (R)-3-(4-(2-(9-(4-((5-chloro-4-((5-(dimethylphosphoryl)-2-ethylquinazolin-6-yl)amino)pyrimidin-2-yl)amino)-5-methoxy-2-methylphenyl)-3,9-diazaspiro[5.5]undecan-3-yl)ethyl)-2,6-difluorophenyl)piperidine-2,6-dione], on EGFR-L858R/T790M/C797S, the DC50 was determined as 4.9 nM and the Dmax was determined as 85%. In addition, in the assay on EGFR-Del19/T790M/C797S, the DC50 was found to be 1.5 nM and the “Dmax (%) H1975 # 28 DTC” value is recorded as 93%.
The corresponding values for `CCc1cc(Nc2ncc(Br)c(Nc3ccc4nc(C)c(F)cc4c3P(C)(C)=O)n2)c(OC)cc1N1CCC2(CCN(CCN(C)c3cc(F)c([C@H]4CCC(=O)NC4=O)c(F)c3)CC2)CC1` [Example 44, (R)-3-(4-((2-(9-(4-((5-bromo-4-((5-(dimethylphosphoryl)-3-fluoro-2-methylquinolin-6-yl)amino)pyrimidin-2-yl)amino)-2-ethyl-5-methoxyphenyl)-3,9-diazaspiro[5.5]undecan-3-yl)ethyl)(methyl)amino)-2,6-difluorophenyl)piperidine-2,6-dione] are 4.2 nM, 92%, 3.5 nM and 90%.
As for `CCc1cc(Nc2ncc(Br)c(Nc3ccc4nc(C)c(F)cc4c3P(C)(C)=O)n2)c(OC)cc1N1CCC2(CCN(CC3CCN(c4cccc5c4C(=O)N(C4CCC(=O)NC4=O)C5=O)CC3)CC2)CC1` (stereo not shown) [Example 45, 4-(4-((9-(4-((5-bromo-4-((5-(dimethylphosphoryl)-3-fluoro-2-methylquinolin-6-yl)amino)pyrimidin-2-yl)amino)-2-ethyl-5-methoxyphenyl)-3,9-diazaspiro[5.5]undecan-3-yl)methyl)piperidin-1-yl)-2-(2,6-dioxopiperidin-3-yl)isoindoline-1,3-dione], at EGFR-L858R/T790M/C797S, the DC50 amounted to 7.4 nM and the Dmax was 86%. For the same molecule, in the assay on EGFR-Del19/T790M/C797S, the DC50 was determined as 7.7 nM and the “Dmax (%) H1975 # 28 DTC” value worked out at 81%.
The corresponding values for `CCc1cc(Nc2ncc(Br)c(Nc3ccc4nc(C)c(F)cc4c3P(C)(C)=O)n2)c(OC)cc1N1CCC2(CCN(CC3CCN(c4ccc5c(c4)C(=O)N(C4CCC(=O)NC4=O)C5=O)CC3)CC2)CC1` (stereo not shown) [Example 46, 5-(4-((9-(4-((5-bromo-4-((5-(dimethylphosphoryl)-3-fluoro-2-methylquinolin-6-yl)amino)pyrimidin-2-yl)amino)-2-ethyl-5-methoxyphenyl)-3,9-diazaspiro [5.5]undecan-3-yl)methyl)piperidin-1-yl)-2-(2,6-dioxopiperidin-3-yl)isoindoline-1,3-dione] are 5.4 nM, 89%, 3.3 nM and 80%.
The corresponding values for `CCc1cc(Nc2ncc(Br)c(Nc3ccc4nc(C)c(F)cc4c3P(C)(C)=O)n2)c(OC)cc1N1CCC2(CCN(CC3CCN(c4cc5c(cc4F)C(=O)N(C4CCC(=O)NC4=O)C5=O)CC3)CC2)CC1` (stereo not shown) [Example 47, 5-(4-((9-(4-((5-bromo-4-((5-(dimethylphosphoryl)-3-fluoro-2-methylquinolin-6-yl)amino)pyrimidin-2-yl)amino)-2-ethyl-5-methoxyphenyl)-3,9-diazaspiro[5.5]undecan-3-yl)methyl)piperidin-1-yl)-2-(2,6-dioxopiperidin-3-yl)-6-fluoroisoindoline-1,3-dione] are 16 nM, 88%, 14.3 nM and 73%.
With `CCc1cc(Nc2ncc(Br)c(Nc3ccc4nc(C)c(F)cc4c3P(C)(C)=O)n2)c(OC)cc1N1CCC2(CCN(CC3CCN(c4ccc5c(c4)CN(C4CCC(=O)NC4=O)C5=O)CC3)CC2)CC1` (stereo not shown) [Example 48, 3-(5-(4-((9-(4-((5-bromo-4-((5-(dimethylphosphoryl)-3-fluoro-2-methylquinolin-6-yl)amino)pyrimidin-2-yl)amino)-2-ethyl-5-methoxyphenyl)-3,9-diazaspiro[5.5]undecan-3-yl)methyl)piperidin-1-yl)-1-oxoisoindolin-2-yl)piperidine-2,6-dione], at EGFR-L858R/T790M/C797S, the DC50 was 2.8 nM and the Dmax turned out to be 90%. Further, in the assay on EGFR-Del19/T790M/C797S, the DC50 amounted to 1.7 nM and the “Dmax (%) H1975 # 28 DTC” value was found to be 83%.
The corresponding values for `CCc1cc(Nc2ncc(Br)c(Nc3ccc4nc(C)c(F)cc4c3P(C)(C)=O)n2)c(OC)cc1N1CCC2(CCN(C[C@@H]3CCN(c4ccc5c(c4)C(=O)N(C4CCC(=O)NC4=O)C5=O)C3)CC2)CC1` (stereo partly drawn) [Example 49, 5-((S)-3-((9-(4-((5-bromo-4-((5-(dimethylphosphoryl)-3-fluoro-2-methylquinolin-6-yl)amino)pyrimidin-2-yl)amino)-2-ethyl-5-methoxyphenyl)-3,9-diazaspiro[5.5]undecan-3-yl)methyl)pyrrolidin-1-yl)-2-(2,6-dioxopiperidin-3-yl)isoindoline-1,3-dione] are 7.6 nM, 89%, 3.8 nM and 82%.

These data come from patent US20240368203A1, “DEGRADATION OF (EGFR) BY CONJUGATION OF EGFR INHIBITORS WITH E3 LIGASE LIGAND AND METHODS OF USE” (BeiGene, Ltd., priority 2022, published 2024).
